± gives the standard deviation of the averaged measurements.

These results are taken from the supplement of paper PMC7661543.

Common to all, as to test: relative cell number vs DMSO control (72 h) (% of DMSO); higher = less growth inhibition (more cells)
Holding throughout (conditions): sgRNA knockout: sgNT

One test has as its system HCC-38. Here is the method:
(§1)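 QMAP-Seq: a pool of 5 breast cancer cell lines (ZR-75-1, SKBR3, HCC-38, MDA-MB-231, BT-20), each carrying 12 doxycycline-inducible Cas9 sgRNA perturbations (11 knockouts plus non-targeting sgNT), was treated with compounds for 72 h at four 10-fold doses (10 nM-10 uM or 1 nM-1 uM range). Barcodes were amplified and sequenced, and cell number was interpolated from 293T spike-in standard curves. The result is expressed as % of the median of DMSO wells. Two biological replicates.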

Another test has as its system SKBR3. Here is the method:
as §1

Another test relates to ZR-75-1. Here is the method:
as §1

Another test deals with MDA-MB-231. Here is the method:
as §1

For another test, the system named is BT-20. Here is the method: as §1

For the compound `CN(C)c1cc(NC(=O)CNC(C)(C)C)c(O)c2c1C[C@H]1C[C@H]3[C@H](N(C)C)C(O)=C(C(N)=O)C(=O)[C@@]3(O)C(O)=C1C2=O` [Tigecycline], the relative cell number in the test with HCC-38 (10 nM) is 87.5 ± 6.1; in the test on HCC-38 (100 nM) it was 107 ± 30; in the test with HCC-38 (1000 nM), 88.8 ± 2.6; with HCC-38 (10000 nM), 102 ± 6.5; in the test with SKBR3 (10 nM), 92.5 ± 19; with SKBR3 (100 nM), 69.1 ± 4.5. The relative cell number with SKBR3 (1000 nM) is 104 ± 33; in the test with SKBR3 (10000 nM), 65.6 ± 5.3; in the test with ZR-75-1 (10 nM), 91.5 ± 11; in the test with ZR-75-1 (100 nM) it was 96.2 ± 29; with ZR-75-1 (1000 nM), 123 ± 24; with ZR-75-1 (10000 nM), 90.1 ± 21. Moreover, the relative cell number in the test with MDA-MB-231 (10 nM) was 117 ± 16; with MDA-MB-231 (100 nM), 92.1 ± 21; with MDA-MB-231 (1000 nM) it was 123 ± 18; with MDA-MB-231 (10000 nM), 83 ± 9.6; in the test on BT-20 (10 nM) it was 104 ± 12; with BT-20 (100 nM) it was 97.4 ± 4.4. Further, the results for the relative cell number with BT-20 (1000 nM) and with BT-20 (10000 nM) were 112 ± 24 and 118 ± 3.6, respectively.

Regarding `O=C1NC(=O)[C@@H](c2cn3c4c(cccc24)CCC3)[C@@H]1c1c[nH]c2ccccc12` [Tivantinib], the relative cell number is 89.1 ± 20 in the test with HCC-38 (10 nM); 84.9 ± 14 in the test with HCC-38 (100 nM); 39.6 ± 4.2 in the test on HCC-38 (1000 nM); 25.8 ± 3.1 in the test on HCC-38 (10000 nM); 94.9 ± 2.9 with SKBR3 (10 nM); 71.06 ± 0.6 in the test on SKBR3 (100 nM). Further, the relative cell number in the test on SKBR3 (1000 nM) came to 19.5 ± 5.7; with SKBR3 (10000 nM), 6.47 ± 2; in the test on ZR-75-1 (10 nM), 69.2 ± 29; in the test on ZR-75-1 (100 nM) it was 70.4 ± 1.6; in the test on ZR-75-1 (1000 nM) it was 20.4 ± 6.4; in the test with ZR-75-1 (10000 nM) it was 16.6 ± 1.9. Moreover, the relative cell number in the test on MDA-MB-231 (10 nM) is 107 ± 20; in the test with MDA-MB-231 (100 nM), 97.1 ± 6.3; in the test with MDA-MB-231 (1000 nM), 34.2 ± 18; in the test on MDA-MB-231 (10000 nM), 22.9 ± 13; in the test with BT-20 (10 nM), 109 ± 24; with BT-20 (100 nM), 83.6 ± 12. Further, the relative cell number came to 53 ± 6.2 in the test on BT-20 (1000 nM) and 26 ± 1.1 in the test on BT-20 (10000 nM).

In the case of `COc1cc2nccc(Oc3ccc(NC(=O)Nc4cc(C)on4)c(Cl)c3)c2cc1OC` [Tivozanib], the relative cell number was 94.3 ± 6.2 in the test on HCC-38 (10 nM); 94.5 ± 10 in the test on HCC-38 (100 nM); 98.6 ± 11 with HCC-38 (1000 nM); 48.4 ± 2.2 in the test on HCC-38 (10000 nM); 103 ± 5.7 in the test on SKBR3 (10 nM); 97.7 ± 19 in the test with SKBR3 (100 nM). The relative cell number turned out to be 96.2 ± 3.3 with SKBR3 (1000 nM); 62.3 ± 7 in the test with SKBR3 (10000 nM); 83.6 ± 67 in the test on ZR-75-1 (10 nM); 101 ± 13 with ZR-75-1 (100 nM); 115 ± 4.3 with ZR-75-1 (1000 nM); 33.8 ± 12 with ZR-75-1 (10000 nM). Further, the relative cell number in the test on MDA-MB-231 (10 nM) turned out to be 101 ± 2.9; with MDA-MB-231 (100 nM) it was 105 ± 6.9; in the test with MDA-MB-231 (1000 nM) it was 94.7 ± 14; with MDA-MB-231 (10000 nM), 63.3 ± 3.9; in the test on BT-20 (10 nM), 87.3 ± 13; in the test with BT-20 (100 nM), 75.4 ± 7. Besides, the figures for the relative cell number with BT-20 (1000 nM) and with BT-20 (10000 nM) were 101 ± 8.1 and 79.4 ± 11, respectively.

On to `CC[C@@]1(O)C(=O)OCc2c1cc1n(c2=O)Cc2cc3c(CN(C)C)c(O)ccc3nc2-1` [Topotecan], for which the relative cell number in the test on HCC-38 (10 nM) came to 52.1 ± 9.8; in the test with HCC-38 (100 nM), 20.9 ± 0.31; in the test with HCC-38 (1000 nM) it was 12.1 ± 1.6; with HCC-38 (10000 nM), 8.742 ± 0.069; in the test on SKBR3 (10 nM), 58.7 ± 5.9; in the test on SKBR3 (100 nM), 34.7 ± 19. In addition, the relative cell number in the test with SKBR3 (1000 nM) was 12.1 ± 2.9; with SKBR3 (10000 nM), 6.08 ± 3.9; in the test on ZR-75-1 (10 nM), 65.9 ± 3.4; in the test on ZR-75-1 (100 nM) it was 37 ± 5.1; with ZR-75-1 (1000 nM), 14 ± 5.7; with ZR-75-1 (10000 nM), 11.8 ± 9.3. Besides, the relative cell number in the test on MDA-MB-231 (10 nM) is 85.1 ± 59; in the test on MDA-MB-231 (100 nM) it was 26 ± 0.82; with MDA-MB-231 (1000 nM), 16.9 ± 1.2; in the test with MDA-MB-231 (10000 nM), 8.21 ± 3.3; in the test with BT-20 (10 nM) it was 73.1 ± 10; with BT-20 (100 nM) it was 49 ± 8.1. Also, the relative cell number with BT-20 (1000 nM) is 30.9 ± 2.8; in the test on BT-20 (10000 nM) it was 12.1 ± 3.9.

In the case of `CC(=O)Nc1cccc(-n2c(=O)n(C3CC3)c(=O)c3c(Nc4ccc(I)cc4F)n(C)c(=O)c(C)c32)c1` [Trametinib], the relative cell number is 100 ± 5.3 in the test with HCC-38 (10 nM); 78 ± 5.7 in the test on HCC-38 (100 nM); 79.2 ± 5.8 with HCC-38 (1000 nM); 71.3 ± 2.2 in the test on HCC-38 (10000 nM); 116 ± 3.5 in the test with SKBR3 (10 nM); 72.4 ± 22 in the test with SKBR3 (100 nM). Also, the relative cell number was 87 ± 36 in the test with SKBR3 (1000 nM); 58.7 ± 19 in the test on SKBR3 (10000 nM); 101 ± 9.6 in the test on ZR-75-1 (10 nM); 51.9 ± 2.8 with ZR-75-1 (100 nM); 43.3 ± 13 in the test on ZR-75-1 (1000 nM); 40.3 ± 22 in the test with ZR-75-1 (10000 nM). Further, the relative cell number came to 102 ± 27 with MDA-MB-231 (10 nM); 66.9 ± 6 in the test on MDA-MB-231 (100 nM); 39.9 ± 6 in the test with MDA-MB-231 (1000 nM); 20.1 ± 2.6 in the test on MDA-MB-231 (10000 nM); 97.3 ± 1.3 in the test with BT-20 (10 nM); 65.2 ± 12 in the test with BT-20 (100 nM). The relative cell number with BT-20 (1000 nM) was 70.5 ± 16; in the test with BT-20 (10000 nM), 82.8 ± 37.

With `CN1CCN(CCCN2c3ccccc3Sc3ccc(C(F)(F)F)cc32)CC1` [Trifluoperazine], the relative cell number turned out to be 97.3 ± 7 in the test on HCC-38 (10 nM); 86.1 ± 5.2 in the test with HCC-38 (100 nM); 111 ± 8.7 with HCC-38 (1000 nM); 80.4 ± 6.6 in the test on HCC-38 (10000 nM); 57.9 ± 35 with SKBR3 (10 nM); 79 ± 23 in the test with SKBR3 (100 nM). Moreover, the relative cell number came to 80.65 ± 0.72 in the test on SKBR3 (1000 nM); 50.3 ± 10 in the test on SKBR3 (10000 nM); 77.4 ± 46 with ZR-75-1 (10 nM); 81.3 ± 30 in the test with ZR-75-1 (100 nM); 80.7 ± 20 in the test with ZR-75-1 (1000 nM); 37.4 ± 5.8 with ZR-75-1 (10000 nM). For the same compound, the relative cell number with MDA-MB-231 (10 nM) was 77.9 ± 18; in the test with MDA-MB-231 (100 nM), 117 ± 43; in the test with MDA-MB-231 (1000 nM), 99.2 ± 25; in the test on MDA-MB-231 (10000 nM), 77.8 ± 7.4; with BT-20 (10 nM), 80.3 ± 46; with BT-20 (100 nM) it was 90.7 ± 11. Besides, the relative cell number in the test on BT-20 (1000 nM) amounted to 82.4 ± 4.9; with BT-20 (10000 nM), 78.4 ± 15.
